Legend:
[1] = target: T1, NUAK family SNF1-like kinase 1 (Homo sapiens) (UniProt O60285); assay: Inhibition of ARK5 (unknown origin) assessed as residual activity at 1000 nM by KINOMEscan analysis relative to control
T1 sequence (whole entry): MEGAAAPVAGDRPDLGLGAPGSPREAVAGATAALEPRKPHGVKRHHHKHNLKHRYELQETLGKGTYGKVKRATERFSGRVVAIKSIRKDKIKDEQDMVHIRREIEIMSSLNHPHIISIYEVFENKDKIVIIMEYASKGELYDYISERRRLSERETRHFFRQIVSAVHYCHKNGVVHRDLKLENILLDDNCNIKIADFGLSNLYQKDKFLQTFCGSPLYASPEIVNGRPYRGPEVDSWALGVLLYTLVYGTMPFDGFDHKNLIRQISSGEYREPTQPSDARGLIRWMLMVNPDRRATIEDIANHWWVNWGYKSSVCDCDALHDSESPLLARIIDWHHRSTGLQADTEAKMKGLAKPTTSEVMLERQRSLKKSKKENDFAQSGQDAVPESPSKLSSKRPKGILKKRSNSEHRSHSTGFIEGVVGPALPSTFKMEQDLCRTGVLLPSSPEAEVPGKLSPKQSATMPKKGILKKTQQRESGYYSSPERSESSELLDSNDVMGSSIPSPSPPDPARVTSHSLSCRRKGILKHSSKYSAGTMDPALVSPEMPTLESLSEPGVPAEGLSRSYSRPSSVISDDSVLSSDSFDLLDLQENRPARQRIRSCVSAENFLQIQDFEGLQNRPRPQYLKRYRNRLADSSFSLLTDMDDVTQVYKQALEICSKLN

[2] = target: T2, Calcium/calmodulin-dependent protein kinase type IV (Homo sapiens) (UniProt Q16566); assay: Inhibition of CAMK4 (unknown origin) assessed as residual activity at 1000 nM by KINOMEscan analysis relative to control
T2 sequence (whole entry): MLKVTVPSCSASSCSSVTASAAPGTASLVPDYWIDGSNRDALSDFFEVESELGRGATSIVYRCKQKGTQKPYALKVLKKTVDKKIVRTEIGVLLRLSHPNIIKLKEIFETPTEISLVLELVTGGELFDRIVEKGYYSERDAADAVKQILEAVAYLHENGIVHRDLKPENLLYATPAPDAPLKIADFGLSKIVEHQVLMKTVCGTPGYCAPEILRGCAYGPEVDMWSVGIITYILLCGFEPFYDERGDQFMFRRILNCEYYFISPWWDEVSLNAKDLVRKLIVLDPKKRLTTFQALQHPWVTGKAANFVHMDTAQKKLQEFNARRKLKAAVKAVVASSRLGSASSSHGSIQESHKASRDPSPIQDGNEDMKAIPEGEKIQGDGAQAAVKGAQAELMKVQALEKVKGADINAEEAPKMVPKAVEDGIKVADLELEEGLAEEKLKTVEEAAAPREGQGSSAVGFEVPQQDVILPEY

[3] = target: Calcium/calmodulin-dependent protein kinase kinase 2 (Homo sapiens) (UniProt Q96RR4); assay: Inhibition of CAMKK2 (unknown origin) assessed as residual activity at 1000 nM by KINOMEscan analysis relative to control
[4] = target: Cyclin-dependent kinase 3 (Homo sapiens) (UniProt Q00526); assay: Inhibition of CDK3 (unknown origin) assessed as residual activity at 1000 nM by KINOMEscan analysis relative to control
[5] = target: Cyclin-dependent kinase-like 1 (Homo sapiens) (UniProt Q00532); assay: Inhibition of CDKL1 (unknown origin) assessed as residual activity at 1000 nM by KINOMEscan analysis relative to control
[6] = target: Casein kinase I isoform alpha (Homo sapiens) (UniProt P48729); assay: Inhibition of CSNK1A1 (unknown origin) assessed as residual activity at 1000 nM by KINOMEscan analysis relative to control
[7] = target: Casein kinase I isoform delta (Homo sapiens) (UniProt P48730); assay: Inhibition of CSNK1D (unknown origin) assessed as residual activity at 1000 nM by KINOMEscan analysis relative to control
[8] = tested on: Epidermal growth factor receptor (Homo sapiens), P00533 [UNDEFINED MUTATION]; assay: Inhibition of EGFR L747-S752del/P753S mutant (unknown origin) assessed as residual activity at 1000 nM by KINOMEscan analysis relative to control
[9] = target: Mitogen-activated protein kinase 7 (Homo sapiens) (UniProt Q13164); assay: Inhibition of ERK5 (unknown origin) assessed as residual activity at 1000 nM by KINOMEscan analysis relative to control
[10] = tested on: Mast/stem cell growth factor receptor Kit (Homo sapiens), P10721 [D816V]; assay: Inhibition of KIT D816V mutant (unknown origin) assessed as residual activity at 1000 nM by KINOMEscan analysis relative to control
[11] = target: Myosin light chain kinase, smooth muscle (Homo sapiens) (UniProt Q15746); assay: Inhibition of MLCK (unknown origin) assessed as residual activity at 1000 nM by KINOMEscan analysis relative to control
[12] = target: Myosin light chain kinase, smooth muscle (Homo sapiens) (UniProt Q15746); assay: Inhibition of MYLK (unknown origin) assessed as residual activity at 1000 nM by KINOMEscan analysis relative to control
[13] = target: Serine/threonine-protein kinase PAK 3 (Homo sapiens) (UniProt O75914); assay: Inhibition of PAK3 (unknown origin) assessed as residual activity at 1000 nM by KINOMEscan analysis relative to control
[14] = tested on: Phosphatidylinositol 4,5-bisphosphate 3-kinase catalytic subunit alpha isoform (Homo sapiens), P42336 [E542K]; assay: Inhibition of PIK3CA E542K mutant (unknown origin) assessed as residual activity at 1000 nM by KINOMEscan analysis relative to control
[15] = organism: Homo sapiens; assay: Inhibition of PIP5K1C (unknown origin) assessed as residual activity at 1000 nM by KINOMEscan analysis relative to control
[16] = target: T3, Serine/threonine-protein kinase ULK3 (Homo sapiens) (UniProt Q6PHR2); assay: Inhibition of ULK3 (unknown origin) assessed as residual activity at 1000 nM by KINOMEscan analysis relative to control
T3 sequence (whole entry): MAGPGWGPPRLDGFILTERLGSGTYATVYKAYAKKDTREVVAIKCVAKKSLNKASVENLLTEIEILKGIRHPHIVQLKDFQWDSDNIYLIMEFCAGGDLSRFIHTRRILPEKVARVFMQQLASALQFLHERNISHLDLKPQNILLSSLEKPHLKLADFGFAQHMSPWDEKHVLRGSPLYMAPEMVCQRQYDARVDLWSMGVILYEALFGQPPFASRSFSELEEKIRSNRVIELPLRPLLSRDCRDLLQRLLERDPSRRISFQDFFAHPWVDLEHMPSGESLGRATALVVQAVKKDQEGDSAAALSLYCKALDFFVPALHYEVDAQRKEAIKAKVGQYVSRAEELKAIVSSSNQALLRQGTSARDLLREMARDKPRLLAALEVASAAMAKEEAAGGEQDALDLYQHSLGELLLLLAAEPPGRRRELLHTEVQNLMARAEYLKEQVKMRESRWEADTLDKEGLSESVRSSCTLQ

Myosin light chain kinase, smooth muscle (Homo sapiens), sequence (Q15746 whole entry): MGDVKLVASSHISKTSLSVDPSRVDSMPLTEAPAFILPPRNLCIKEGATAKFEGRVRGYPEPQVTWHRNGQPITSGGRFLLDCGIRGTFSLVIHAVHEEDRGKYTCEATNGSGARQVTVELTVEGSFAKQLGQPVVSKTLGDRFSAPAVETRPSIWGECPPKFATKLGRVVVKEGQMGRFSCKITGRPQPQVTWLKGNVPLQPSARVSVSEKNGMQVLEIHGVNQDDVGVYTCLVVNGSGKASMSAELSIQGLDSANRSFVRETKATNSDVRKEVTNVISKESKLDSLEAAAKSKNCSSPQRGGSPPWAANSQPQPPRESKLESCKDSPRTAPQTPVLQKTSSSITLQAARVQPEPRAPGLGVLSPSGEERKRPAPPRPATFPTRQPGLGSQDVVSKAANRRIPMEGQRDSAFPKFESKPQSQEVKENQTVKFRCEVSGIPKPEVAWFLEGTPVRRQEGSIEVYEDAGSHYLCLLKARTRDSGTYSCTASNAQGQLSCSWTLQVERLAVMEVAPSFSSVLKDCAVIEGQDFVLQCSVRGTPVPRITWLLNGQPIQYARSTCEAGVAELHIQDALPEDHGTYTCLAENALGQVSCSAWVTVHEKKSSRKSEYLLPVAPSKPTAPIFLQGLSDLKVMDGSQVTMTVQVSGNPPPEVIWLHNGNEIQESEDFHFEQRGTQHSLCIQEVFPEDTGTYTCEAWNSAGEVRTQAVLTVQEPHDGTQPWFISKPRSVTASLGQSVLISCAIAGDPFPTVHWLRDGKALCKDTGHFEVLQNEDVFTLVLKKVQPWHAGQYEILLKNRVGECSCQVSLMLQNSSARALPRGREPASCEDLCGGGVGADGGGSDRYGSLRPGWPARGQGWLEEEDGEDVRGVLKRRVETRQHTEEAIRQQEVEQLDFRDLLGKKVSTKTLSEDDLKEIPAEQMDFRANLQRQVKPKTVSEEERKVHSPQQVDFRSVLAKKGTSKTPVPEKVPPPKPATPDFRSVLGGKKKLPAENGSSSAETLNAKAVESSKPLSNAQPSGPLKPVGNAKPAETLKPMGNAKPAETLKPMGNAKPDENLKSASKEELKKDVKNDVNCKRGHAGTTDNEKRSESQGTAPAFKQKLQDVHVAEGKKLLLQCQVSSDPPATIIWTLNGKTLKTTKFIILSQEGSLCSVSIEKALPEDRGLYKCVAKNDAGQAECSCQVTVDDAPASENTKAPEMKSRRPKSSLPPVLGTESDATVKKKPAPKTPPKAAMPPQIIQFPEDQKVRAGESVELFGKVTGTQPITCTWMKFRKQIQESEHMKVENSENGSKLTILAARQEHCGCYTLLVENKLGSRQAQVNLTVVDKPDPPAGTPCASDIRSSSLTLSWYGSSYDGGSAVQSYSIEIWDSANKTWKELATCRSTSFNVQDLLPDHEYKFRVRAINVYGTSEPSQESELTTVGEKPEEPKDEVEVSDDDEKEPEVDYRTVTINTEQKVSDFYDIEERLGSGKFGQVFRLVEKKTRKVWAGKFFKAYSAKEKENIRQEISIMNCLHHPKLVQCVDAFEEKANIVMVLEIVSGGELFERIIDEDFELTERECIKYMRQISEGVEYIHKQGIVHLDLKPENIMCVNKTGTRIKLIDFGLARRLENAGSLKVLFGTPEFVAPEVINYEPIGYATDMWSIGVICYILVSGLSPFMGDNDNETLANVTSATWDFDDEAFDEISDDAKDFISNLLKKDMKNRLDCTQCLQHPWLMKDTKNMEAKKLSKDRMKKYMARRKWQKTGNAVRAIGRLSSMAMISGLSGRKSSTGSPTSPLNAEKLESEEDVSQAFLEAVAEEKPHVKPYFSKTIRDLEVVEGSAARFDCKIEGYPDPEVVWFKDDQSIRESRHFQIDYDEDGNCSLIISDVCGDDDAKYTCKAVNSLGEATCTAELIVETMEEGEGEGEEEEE
Mast/stem cell growth factor receptor Kit (Homo sapiens), P10721 [D816V], sequence (P10721 whole entry D816V): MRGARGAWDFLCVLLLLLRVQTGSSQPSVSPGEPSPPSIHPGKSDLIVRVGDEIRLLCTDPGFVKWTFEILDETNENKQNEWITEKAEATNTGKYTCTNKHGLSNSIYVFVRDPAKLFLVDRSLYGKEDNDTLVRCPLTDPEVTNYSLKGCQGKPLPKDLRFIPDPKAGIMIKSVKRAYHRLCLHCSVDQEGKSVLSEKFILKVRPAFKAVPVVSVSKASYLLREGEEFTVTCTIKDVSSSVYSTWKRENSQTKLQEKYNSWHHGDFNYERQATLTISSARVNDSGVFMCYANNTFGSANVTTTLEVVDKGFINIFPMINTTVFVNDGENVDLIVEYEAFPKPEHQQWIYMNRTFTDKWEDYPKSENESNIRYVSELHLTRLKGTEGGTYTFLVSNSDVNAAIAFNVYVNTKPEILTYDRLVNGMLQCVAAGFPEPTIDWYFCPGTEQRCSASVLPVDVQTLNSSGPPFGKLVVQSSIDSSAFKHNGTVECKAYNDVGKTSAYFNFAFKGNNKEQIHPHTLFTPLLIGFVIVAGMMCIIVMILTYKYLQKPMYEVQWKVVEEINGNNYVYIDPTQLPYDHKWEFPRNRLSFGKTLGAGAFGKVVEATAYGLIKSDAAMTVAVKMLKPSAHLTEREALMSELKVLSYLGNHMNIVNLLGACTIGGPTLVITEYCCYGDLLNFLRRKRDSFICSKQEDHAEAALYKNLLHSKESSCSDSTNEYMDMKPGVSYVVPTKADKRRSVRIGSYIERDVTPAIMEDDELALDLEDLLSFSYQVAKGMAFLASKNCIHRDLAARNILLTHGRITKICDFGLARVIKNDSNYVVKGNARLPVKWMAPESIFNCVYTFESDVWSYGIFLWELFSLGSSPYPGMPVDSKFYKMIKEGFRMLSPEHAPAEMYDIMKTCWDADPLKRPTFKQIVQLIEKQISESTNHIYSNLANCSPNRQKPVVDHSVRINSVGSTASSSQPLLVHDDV
Phosphatidylinositol 4,5-bisphosphate 3-kinase catalytic subunit alpha isoform (Homo sapiens), P42336 [E542K], sequence (P42336 whole entry E542K, canonical isoform): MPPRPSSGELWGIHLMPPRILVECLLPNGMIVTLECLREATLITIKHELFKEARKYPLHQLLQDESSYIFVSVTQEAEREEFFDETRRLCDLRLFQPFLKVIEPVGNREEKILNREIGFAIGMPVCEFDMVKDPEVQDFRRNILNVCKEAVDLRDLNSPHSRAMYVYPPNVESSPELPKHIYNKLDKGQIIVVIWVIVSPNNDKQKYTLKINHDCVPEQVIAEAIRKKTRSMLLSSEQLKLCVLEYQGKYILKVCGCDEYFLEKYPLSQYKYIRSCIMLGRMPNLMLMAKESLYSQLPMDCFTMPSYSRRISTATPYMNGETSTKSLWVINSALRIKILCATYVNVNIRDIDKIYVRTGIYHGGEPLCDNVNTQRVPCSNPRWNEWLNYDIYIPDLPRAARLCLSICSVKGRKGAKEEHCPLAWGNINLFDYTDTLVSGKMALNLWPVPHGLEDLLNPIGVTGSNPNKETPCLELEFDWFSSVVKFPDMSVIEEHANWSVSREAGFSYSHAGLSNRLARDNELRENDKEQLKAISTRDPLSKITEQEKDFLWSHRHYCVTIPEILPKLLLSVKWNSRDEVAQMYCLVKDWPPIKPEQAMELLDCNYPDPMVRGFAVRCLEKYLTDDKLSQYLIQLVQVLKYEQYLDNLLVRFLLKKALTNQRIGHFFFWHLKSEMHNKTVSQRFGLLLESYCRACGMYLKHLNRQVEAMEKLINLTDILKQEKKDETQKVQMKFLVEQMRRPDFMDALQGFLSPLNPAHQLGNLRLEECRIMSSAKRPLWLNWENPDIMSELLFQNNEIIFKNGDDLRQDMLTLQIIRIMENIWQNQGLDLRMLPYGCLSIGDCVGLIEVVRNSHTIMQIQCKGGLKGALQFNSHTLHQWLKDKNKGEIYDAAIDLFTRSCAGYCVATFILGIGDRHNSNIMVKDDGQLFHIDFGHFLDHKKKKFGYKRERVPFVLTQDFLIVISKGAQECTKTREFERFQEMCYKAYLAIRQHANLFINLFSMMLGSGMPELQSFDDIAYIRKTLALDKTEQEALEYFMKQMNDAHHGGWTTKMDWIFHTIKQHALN
Serine/threonine-protein kinase PAK 3 (Homo sapiens), sequence (O75914 whole entry, looked up, canonical isoform): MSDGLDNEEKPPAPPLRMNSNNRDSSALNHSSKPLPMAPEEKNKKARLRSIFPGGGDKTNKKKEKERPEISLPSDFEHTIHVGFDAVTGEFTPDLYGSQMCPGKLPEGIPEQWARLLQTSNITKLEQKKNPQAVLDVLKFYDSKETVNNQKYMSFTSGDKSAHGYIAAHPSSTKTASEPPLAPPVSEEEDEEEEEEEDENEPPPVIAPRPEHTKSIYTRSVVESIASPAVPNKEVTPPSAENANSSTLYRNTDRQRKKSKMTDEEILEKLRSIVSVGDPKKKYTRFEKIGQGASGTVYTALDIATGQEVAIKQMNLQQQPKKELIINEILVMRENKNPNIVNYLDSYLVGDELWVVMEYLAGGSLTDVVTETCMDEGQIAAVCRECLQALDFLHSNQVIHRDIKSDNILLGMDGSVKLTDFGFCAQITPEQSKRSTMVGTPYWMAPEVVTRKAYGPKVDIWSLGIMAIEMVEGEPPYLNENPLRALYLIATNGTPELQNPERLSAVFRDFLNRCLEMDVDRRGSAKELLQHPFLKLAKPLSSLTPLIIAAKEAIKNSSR
Casein kinase I isoform alpha (Homo sapiens), sequence (P48729 2-337 limits assumed): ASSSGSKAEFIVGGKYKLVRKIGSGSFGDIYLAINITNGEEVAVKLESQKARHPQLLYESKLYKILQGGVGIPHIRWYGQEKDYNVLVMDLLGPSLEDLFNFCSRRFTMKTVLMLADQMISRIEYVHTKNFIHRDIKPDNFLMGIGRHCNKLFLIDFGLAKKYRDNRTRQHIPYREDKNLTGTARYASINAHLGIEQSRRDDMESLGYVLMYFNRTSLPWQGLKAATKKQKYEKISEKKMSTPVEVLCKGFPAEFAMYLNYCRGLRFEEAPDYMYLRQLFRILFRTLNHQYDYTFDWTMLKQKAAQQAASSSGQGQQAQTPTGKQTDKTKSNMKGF

Compound	Activity [1]	Activity [2]	Activity [3]	Activity [4]	Activity [5]	Activity [6]	Activity [7]	Activity [8]	Activity [9]	Activity [10]	Activity [11]	Activity [12]	Activity [13]	Activity [14]	Activity [15]	Activity [16]
COc1cc2nc(C)nc(N[C@H](C)c3cccc(-c4cn[nH]c4)c3)c2cc1OC	100%	92%	65%	90%	73%	76%	100%	93%	69%	55%	100%	97%	34%	78%	75%	82%
COc1cc2ncnc(N[C@H](C)c3cccc4ccccc34)c2cc1OC	83%	100%	92%	97%	89%	96%	95%	9.3%	91%	96%	100%	88%	58%	96%	82%	99%

Source: ChEMBL document CHEMBL5678818, “Discovery of potent SOS1 inhibitors that block RAS activation via disruption of the RAS-SOS1 interaction” (Proc Natl Acad Sci U S A, 2019)
